Our source for the T/C values is PubChem BioAssay AID296 (DTP/NCI, 2004).

“And” between values parts separate entries of the source, which are not always exact repeats. Equal entries are not always repeated. Inconclusive results are not listed.

The subject of this test is MX-1 breast xenograft, nude mice, tumor weight T/C. Put plainly: NCI In Vivo Anticancer Drug Screen. Data for tumor model Human Mammary Carcinoma MX-1 Xenograft (intrarenal inoculation) in NU/NU Swiss (nude) mice. Particulars: endpoint: mean tumor weight change, higher = larger tumour. The procedure, abridged:
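Compound dosed to mice with transplantable tumor; vehicle group as control. Endpoint survival or tumour size, reported as T/C.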
In general terms: Xenograft models place foreign cells or tissue in a host animal.

Where [1] appears, read: dose: 200.0 mg/kg/injection, schedule: Q04DX003 (sc), vehicle: water.
Setting [2] is: dose: 400.0 mg/kg/injection, schedule: Q04DX003 (sc), vehicle: water.
The mark [3] stands for this setting: dose: 100.0 mg/kg/injection, schedule: Q04DX003 (sc), vehicle: Klucel (hydroxypropylcellulose) (HPC).
Where [4] appears, read: dose: 200.0 mg/kg/injection, schedule: Q04DX003 (sc), vehicle: Klucel (hydroxypropylcellulose) (HPC).
[5] abbreviates: dose: 400.0 mg/kg/injection, schedule: Q04DX003 (sc), vehicle: Klucel (hydroxypropylcellulose) (HPC).
Setting [6] is: dose: 600.0 mg/kg/injection, schedule: Q04DX003 (sc), vehicle: Klucel (hydroxypropylcellulose) (HPC).
Setting [7] is: dose: 800.0 mg/kg/injection, schedule: Q04DX003 (sc), vehicle: Klucel (hydroxypropylcellulose) (HPC).
[8] abbreviates: dose: 300.0 mg/kg/injection, schedule: Q04DX003 (sc), vehicle: Klucel (hydroxypropylcellulose) (HPC).
The mark [9] stands for this setting: dose: 150.0 mg/kg/injection, schedule: Q04DX003 (sc), vehicle: saline with Tween-80.
The mark [10] stands for this setting: dose: 300.0 mg/kg/injection, schedule: Q04DX003 (sc), vehicle: saline with Tween-80.
The mark [11] stands for this setting: dose: 600.0 mg/kg/injection, schedule: Q04DX003 (sc), vehicle: saline with Tween-80.
[12] abbreviates: dose: 1200.0 mg/kg/injection, schedule: Q04DX003 (sc), vehicle: saline with Tween-80.
The mark [13] stands for this setting: dose: 150.0 mg/kg/injection, schedule: Q04DX003 (ip), vehicle: saline.

As to `Oc1cc2c3c(c1)c1cc4c(cc1c[n+]3CC2)OCO4`, the T/C runs as follows: under setting [1], 72 % of control; under setting [2], 100 % of control; (dose: 1600.0 mg/kg/injection, schedule: Q04DX003 (sc), vehicle: water) 72 % of control.
Take `O=S(=O)(SC(S(=O)(=O)c1ccccc1)S(=O)(=O)c1ccccc1)c1ccccc1`: the T/C is, setting by setting: under setting [3], 68 % of control; under setting [4], 42 % of control; under setting [5], 84 % of control; under setting [6], 100 % of control; under setting [7], 87 % of control and 98 % of control; (dose: 1600.0 mg/kg/injection, schedule: Q04DX003 (sc), vehicle: Klucel (hydroxypropylcellulose) (HPC)) 112 % of control.
`CCOC(=O)CNC(=O)Sc1ccc(C(C)(C)C)cc1`: the T/C was 123 % of control under setting [8]; 88 % of control under setting [6]; 81 % of control (dose: 1200.0 mg/kg/injection, schedule: Q04DX003 (sc), vehicle: Klucel (hydroxypropylcellulose) (HPC)); 77 % of control (dose: 2400.0 mg/kg/injection, schedule: Q04DX003 (sc), vehicle: Klucel (hydroxypropylcellulose) (HPC)).
For the compound `CCCCNC(C)[C@]1(O)Cc2c(O)c3c(c(O)c2[C@@H](OC2CC(N)C(O)C(C)O2)C1)C(=O)c1c(OC)cccc1C3=O` (some centres undefined), the T/C was 59 % of control and 61 % of control (dose: 6.25 mg/kg/injection, schedule: Q01DX010 (sc), vehicle: saline); 12 % of control (dose: 18.0 mg/kg/injection, schedule: Q01DX010 (sc), vehicle: saline).
With `CC(=O)NC(C=O)OCC=O` (centres undefined), the T/C is 108 % of control (dose: 100.0 mg/kg/injection, schedule: Q04DX003 (sc), vehicle: water); 72 % of control under setting [1]; 91 % of control under setting [2].
For `COCC1OC2OC3C(COC)OC(OC4C(COC)OC(OC5C(COC)OC(OC6C(COC)OC(OC7C(COC)OC(OC8C(COC)OC(OC1C(O)C2O)C(O)C8O)C(O)C7O)C(O)C6O)C(O)C5O)C(O)C4O)C(O)C3O` (centres undefined) (tested in a mixture with another compound), the T/C is 82 % of control under setting [3], 96 % of control under setting [4], 86 % of control under setting [5] and 76 % of control under setting [7].
Take `CCCCCCCC(=O)OCC(=O)[C@]1(O)Cc2c(O)c3c(c(O)c2[C@@H](OC2CC(N)C(O)C(C)O2)C1)C(=O)c1c(OC)cccc1C3=O` (some centres undefined): the T/C (dose: 4.0 mg/kg/injection, schedule: Q01DX010 (sc), vehicle: suspension in saline) is 17 % of control and the T/C (dose: 8.0 mg/kg/injection, schedule: Q01DX010 (sc), vehicle: suspension in saline) is 2 % of control.
On to `Nc1nc(N)c2cc(S(=O)(=O)c3ccccc3)ccc2n1`, for which the T/C is 160 % of control under setting [9], 171 % of control under setting [10], 185 % of control under setting [11] and 152 % of control under setting [12].
Regarding `NCc1cc(O)c(O)c(O)c1`, the T/C was 115 % of control under setting [13]; 91 % of control (dose: 300.0 mg/kg/injection, schedule: Q04DX003 (ip), vehicle: saline); 88 % of control (dose: 600.0 mg/kg/injection, schedule: Q04DX003 (ip), vehicle: saline).
With `C[C@H](CCC[C@H](C)OS(=O)(=O)c1ccccc1)OS(=O)(=O)c1ccccc1`, the T/C reads like this: under setting [10], 92 % of control; under setting [11], 48 % of control.
Regarding `CN1CCc2c(c3ccccc3c3ccccc23)C1`, the T/C is, setting by setting: (dose: 150.0 mg/kg/injection, schedule: Q04DX003 (sc), vehicle: Klucel (hydroxypropylcellulose) (HPC)) 30 % of control; under setting [8], 45 % of control.
Take `COc1ccc(S(=O)(=O)N/N=C/C(=O)O)cc1`: the T/C (dose: 12.5 mg/kg/injection, schedule: Q01DX010 (sc), vehicle: saline with Tween-80) was 116 % of control.
For the compound `COC1C(O)CC(OC2CC(OC3CC(O[C@@H]4C(=O)c5c(cc6cc(OC7CC(OC8CC(O)C(O)C(C)O8)C(O)C(C)O7)c(C)c(O)c6c5O)C[C@H]4[C@H](OC)C(=O)[C@@H](O)[C@@H](C)O)OC(C)C3O)OC(C)C2O)OC1C` (some centres undefined), the T/C is, setting by setting: (dose: 0.18 mg/kg/injection, schedule: Q01DX010 (sc), vehicle: saline) 99 % of control; (dose: 0.37 mg/kg/injection, schedule: Q04DX003 (sc), vehicle: saline) 123 % of control; (dose: 0.75 mg/kg/injection, schedule: Q04DX003 (sc), vehicle: saline) 90 % of control; (dose: 1.5 mg/kg/injection, schedule: Q04DX003 (sc), vehicle: saline) 61 % of control; (dose: 3.0 mg/kg/injection, schedule: Q01DX010 (sc), vehicle: saline) -93 % of control; (dose: 3.0 mg/kg/injection, schedule: Q04DX003 (sc), vehicle: saline) 35 % of control.
On to `O=C(O)CCCCCCCC(=O)O`, for which the T/C runs as follows: (dose: 300.0 mg/kg/injection, schedule: Q04DX003 (sc), vehicle: distilled water + Tween-80) 151 % of control; (dose: 600.0 mg/kg/injection, schedule: Q04DX003 (sc), vehicle: distilled water + Tween-80) 150 % of control; (dose: 1200.0 mg/kg/injection, schedule: Q04DX003 (sc), vehicle: distilled water + Tween-80) 80 % of control.
As to `CCCCCCCCCCCCCCCCCC(=O)OCC(=O)OCC(=O)[C@]1(O)Cc2c(O)c3c(c(O)c2[C@@H](OC2CC(N)C(O)C(C)O2)C1)C(=O)c1c(OC)cccc1C3=O` (some centres undefined), the T/C (dose: 6.0 mg/kg/injection, schedule: Q01DX010 (sc), vehicle: water) was 48 % of control and the T/C (dose: 12.0 mg/kg/injection, schedule: Q01DX010 (sc), vehicle: water) is 21 % of control.
Regarding `COC(=O)c1ccoc1`, the T/C runs as follows: (dose: 150.0 mg/kg/injection, schedule: Q04DX003 (sc), vehicle: saline) 123 % of control; (dose: 300.0 mg/kg/injection, schedule: Q04DX003 (sc), vehicle: saline) 89 % of control; (dose: 600.0 mg/kg/injection, schedule: Q04DX003 (sc), vehicle: saline) 66 % of control.
Regarding `O=S(=O)(O)c1cc(N=C=S)ccc1/C=C/c1ccc(N=C=S)cc1S(=O)(=O)O`, the T/C under setting [13] is 47 % of control.
With `O=C(O)Cc1cccc2c(=O)cc(-c3ccccc3)oc12`, where the note is “dose: 100.0 mg/kg/injection, schedule: Q04DX003 (ip), vehicle: suspension in saline”, the T/C is 75 % of control.
Regarding `CCCCCCCCCCS(=O)CC(CO)NC(=O)/C=C/c1c(C)[nH]c(=O)[nH]c1=O` (centres undefined), the T/C is, setting by setting: (dose: 9.38 mg/kg/injection, schedule: Q04DX003 (sc), vehicle: distilled water + Tween-80) 88 % of control; (dose: 18.75 mg/kg/injection, schedule: Q04DX003 (sc), vehicle: distilled water + Tween-80) 113 % of control; (dose: 37.5 mg/kg/injection, schedule: Q04DX003 (sc), vehicle: distilled water + Tween-80) 46 % of control.
For `COC1=C(OC)C(=O)C(Sc2ccc3ccccc3c2)=CC1=O`, the T/C is 97 % of control (dose: 100.0 mg/kg/injection, schedule: Q04DX003 (sc), vehicle: saline with Tween-80); 68 % of control (dose: 200.0 mg/kg/injection, schedule: Q04DX003 (sc), vehicle: saline with Tween-80); 88 % of control (dose: 400.0 mg/kg/injection, schedule: Q04DX003 (sc), vehicle: saline with Tween-80); 61 % of control (dose: 800.0 mg/kg/injection, schedule: Q04DX003 (sc), vehicle: saline with Tween-80).
With `COc1cccc(C2NC(=O)c3c(n[nH]c3N)S2)c1O` (centres undefined), the T/C under setting [9] is 50 % of control, the T/C under setting [10] is 62 % of control, the T/C under setting [11] is 77 % of control and the T/C under setting [12] was 117 % of control.
Turning to `Cc1cc(Br)c2nsnc2c1[N+](=O)[O-]`, the T/C reads like this: (dose: 150.0 mg/kg/injection, schedule: Q04DX003 (ip), vehicle: saline with Tween-80) 104 % of control; (dose: 300.0 mg/kg/injection, schedule: Q04DX003 (ip), vehicle: saline with Tween-80) 74 % of control; (dose: 600.0 mg/kg/injection, schedule: Q04DX003 (ip), vehicle: saline with Tween-80) 97 % of control; (dose: 1200.0 mg/kg/injection, schedule: Q04DX003 (ip), vehicle: saline with Tween-80) 159 % of control.
With `CC[C@@]1(O)C[C@H](OC2CC(N(C)C)C(OC3CC(O)C(OC4CCC(=O)C(C)O4)C(C)O3)C(C)O2)c2c(cc3c(c2O)C(=O)c2c(O)ccc(O)c2C3=O)[C@H]1C(=O)OC` (some centres undefined), the T/C is, setting by setting: (dose: 3.0 mg/kg/injection, schedule: Q04DX003 (sc), vehicle: water) 88 % of control; (dose: 6.0 mg/kg/injection, schedule: Q04DX003 (sc), vehicle: water) 43 % of control.
